According to patent publication US6090787A, “Antithrombotic agents” (Eli Lilly and Company, priority 1999, dated 2000):

Columns and labels:
Bovine trypsin = biological target: T1, Bovine trypsin (Bos taurus, UniProt P00760); experiment: Serine protease selectivity, Kass, trypsin chromogenic assay; assay type: biochemical; settings: apparent association constant
T1 construct: purchased Worthington Biochemicals, Freehold, N.J
T1 sequence (P00760 24-246): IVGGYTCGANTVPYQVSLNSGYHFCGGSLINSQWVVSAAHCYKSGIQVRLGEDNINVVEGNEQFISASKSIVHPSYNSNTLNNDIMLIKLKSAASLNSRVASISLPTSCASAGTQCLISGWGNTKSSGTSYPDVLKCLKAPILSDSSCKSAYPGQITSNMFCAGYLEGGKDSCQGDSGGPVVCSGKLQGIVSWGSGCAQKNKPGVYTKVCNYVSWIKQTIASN
Procedure: (§1) By substantially following the procedures described above for human thrombin, and using other human blood coagulation system serine proteases and proteases of the fibrinolytic system with the appropriate chromogenic substrates, identified below, selectivity of the compounds of the present invention with respect to the coagulation factor serine proteases and with respect to the fibrinolytic system serine proteases are evaluated as well as their substantial lack of interference with serine proteases of the fibrinolytic system. Thrombin inhibitors preferably should spare fibrinolysis induced by urokinase, tissue plasminogen activator (t-PA) and streptokinase. This would be important to the therapeutic use of such agents as an adjunct to streptokinase, t-PA or urokinase thrombolytic therapy and to the use of such agents as an endogenous fibrinolysis-sparing (with respect to t-PA and urokinase) antithrombotic agent. In addition to the lack of interference with the amidase activity of the fibrinolytic proteases, such fibrinolytic system sparing can be studied by the use of human plasma clots and their lysis by the respective fibrinolytic plasminogen activators.
(§2) Human factors X, Xa, IXa, XIa, and XIIa are purchased from Enzyme Research Laboratories, South Bend, Ind.; human urokinase from Leo Pharmaceuticals, Denmark; and recombinant activated Protein C (aPC) is prepared at Eli Lilly and Co. substantially according to U.S. Pat. No. 4,981,952 incorporated by reference herein in its entirety. Chromogenic substrates: N--Benzoyl--Ile--Glu--Gly--Arg--p--nitroanilide (for factor Xa); N--Cbz--D--Arg--Gly--Arg--p--nitroanilide (for factor IXa assay as the factor Xa substrate); Pyroglutamyl--Pro--Arg--p--nitroanilide (for Factor XIa and for aPC); H--D--Pro--Phe--Arg--p--nitroanilide (for factor XIIa); and Pyroglutamyl--Gly--Arg--p--nitroanilide (for urokinase); are purchased from KabiVitrum, Stockholm, Sweden, or from Midwest Biotech, Fishers, Indiana. Bovine trypsin is purchased from Worthington Biochemicals, Freehold, N.J., and human plasma kallikrein from Kabi Vitrum, Stockholm, Sweden. Chromogenic substrate H--D--Pro--Phe--Arg--p--nitroanilide for plasma kallikrein is purchased from Kabi Vitrum, Stockholm, Sweden. N--Benzoyl--Phe--Val--Arg--p--nitroanilide, the substrate for human thrombin and for trypsin, is synthesized according to procedures described above for the compounds of the present invention, using known methods of peptide coupling from commercially available reactants or purchased from Midwest Biotech, Fishers, Ind.

Human plasmin = biological target: T2, Human plasmin (Homo sapiens, UniProt P00747); experiment: Fibrinolytic protease selectivity, Kass, plasmin chromogenic assay; assay type: biochemical; settings: apparent association constant
T2 construct: Human plasmin is purchased from Boehringer Mannheim; purchased Boehringer Mannheim, Indianapolis, Indiana
Procedure: as §1
(§3) Human plasmin is purchased from Boehringer Mannheim, Indianapolis, Indiana; nt-PA is purchased as single chain activity reference from American Diagnostica, Greenwich, Conn.; modified-t-PA6 (mt-PA6) is prepared at Eli Lilly and Company by procedure known in the art (See, Burck, et al., J. Biol. Chem., 265, […] (1990). Plasmin chromogenic substrate H--D--Val--Leu--Lys--p--nitroanilide and tissue plasminogen activator (t-PA) substrate H--D--Ile--Pro--Arg--p--nitroanilide are purchased from Kabi Vitrum, Stockholm, Sweden.

human thrombin = biological target: T3, human thrombin (Homo sapiens, UniProt P00734); experiment: Inhibition of amidase activity of thrombin (Kass), chromogenic substrate; assay type: biochemical; settings: apparent association constant, mean over a range of concentrations
T3 construct: purified human thrombin, Enzyme Research Laboratories; purchased Enzyme Research Laboratories, South Bend, Indiana
Procedure: The assay is carried out by mixing 50 μL buffer (0.03 M Tris, 0.15 M NaCl, pH 7.4) with 25 μL of bovine thrombin or human thrombin solution (0.21 mg/mL of thrombostat bovine thrombin, Parke-Davis, or purified human thrombin, Enzyme Research Laboratories, South Bend, Indiana, at about 8 NIH units/mL, in the same buffer) and 25 μL of test compound in a solvent (in 50% aqueous methanol, v:v). The 150 μL of an aqueous solution of the chromogenic substrate (at 0.25 mg/mL) are added and the rates of hydrolysis of the substrate are measured by monitoring the reactions at 405 nm for the release of p-nitroaniline. Standard curves are constructed by plotting free thrombin concentration against hydrolysis rate. The hydrolysis rates observed with test compounds are then converted to "free thrombin" values in the respective assays by use of the standard curves. The bound thrombin (bound to test compound) is calculated by subtracting the amount of free thrombin observed in each assay from the known initial amount of thrombin used in the assay. The amount of free inhibitor in each assay is calculated by subtracting the number of moles of bound thrombin from the number of moles of added inhibitor (test compound).
The Kass value is the hypothetical equilibrium constant for the reaction between thrombin and the test compound (I). [formula]
Kass is calculated for a range of concentrations of test compounds and the mean value is reported in units of liter per mole.

human plasma [1] = experiment: Human plasma anticoagulation, prothrombin time (PT); settings: concentration required to double the PT, linear extrapolation
Procedure: (§4) Dog plasma and rat plasma is obtained from conscious mixed-breed hounds (either sex, Hazelton-LRE, Kalamazoo, Mich., U.S.A.) or from anesthetized male Sprague-Dawley rats (Harlan Sprague-Dawley, Inc., Indianapolis, Ind., U.S.A.) by venipuncture into 3.8 percent citrate. Fibrinogen is prepared from in-date ACD human blood as the fraction I-2 according to previous procedures and specifications. Smith, Biochem. J., 185, 1-11 (1980); and Smith, et al., Biochemistry, 11, 2958-2967 (1972). Human fibrinogen is also purchased as 98 percent pure/plasmin free from American Diagnostica, Greenwich, Conn. Coagulation reagents ACTIN, Thromboplastin, and Human plasma are from Baxter Healthcare Corp., Dade Division, Miami, Fla. Bovine thrombin from Parke-Davis ([…], Mich.) is used for coagulation assays in plasma.
(§5) Coagulation assay procedures are as previously described. Smith, et al., Thrombosis Research, 50, 163-174 (1988). A CoAScreener coagulation instrument (American LABor, Inc.) is used for all coagulation assay measurements. The prothrombin time (PT) is measured by adding 0.05 mL saline and 0.05 mL Thromboplastin-C reagent to 0.05 mL test plasma. The activated partial thromboplastin time (APTT) is measured by incubation of 0.05 mL test plasma with 0.05 mL Actin reagent for 120 seconds followed by 0.05 mL CaCl2 (0.02 M). The thrombin time (TT) is measured by adding 0.05 mL saline and 0.05 mL thrombin (10 NIH units/mL) to 0.05 mL test plasma. The compounds of formula I are added to human or animal plasma over a wide range of concentrations to determine prolongation effects on the APTT, PT, and TT assays. Linear extrapolations are performed to estimate the concentrations required to double the clotting time for each assay.

[2] = biological target: T4, tissue plasminogen activator (t-PA) (Homo sapiens, UniProt P00750); experiment: Fibrinolytic protease selectivity, Kass, t-PA chromogenic assay; assay type: biochemical; settings: apparent association constant
T4 construct: purchased American Diagnostica, Greenwich, Conn
Procedure: as §1, §3

human plasma [3] = experiment: Human plasma anticoagulation, thrombin time (TT); settings: concentration required to double the thrombin time, linear extrapolation
Procedure: as §4, §5

human plasma [4] = experiment: Human plasma anticoagulation, activated partial thromboplastin time (APTT); settings: concentration required to double the APTT, linear extrapolation
Procedure: as §4, §5

factor Xa = biological target: T5, factor Xa (Homo sapiens, UniProt P00742); experiment: Serine protease selectivity, Kass, factor Xa chromogenic assay; assay type: biochemical; settings: apparent association constant
T5 construct: Human factors X, Xa, IXa, XIa, and XIIa are purchased from Enzyme Research Laboratories; purchased Enzyme Research Laboratories, South Bend, Ind
Procedure: as §1, §2

T5 sequence (P00742 235-488 limits assumed): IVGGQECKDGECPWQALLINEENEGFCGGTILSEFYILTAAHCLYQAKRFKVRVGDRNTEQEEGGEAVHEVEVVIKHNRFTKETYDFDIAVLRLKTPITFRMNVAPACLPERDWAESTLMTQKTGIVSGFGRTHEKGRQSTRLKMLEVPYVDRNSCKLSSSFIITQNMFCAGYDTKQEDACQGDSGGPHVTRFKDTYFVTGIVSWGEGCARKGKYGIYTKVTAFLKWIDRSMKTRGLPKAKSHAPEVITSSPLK
T5 sequence (P00742 41-179 partner limits assumed): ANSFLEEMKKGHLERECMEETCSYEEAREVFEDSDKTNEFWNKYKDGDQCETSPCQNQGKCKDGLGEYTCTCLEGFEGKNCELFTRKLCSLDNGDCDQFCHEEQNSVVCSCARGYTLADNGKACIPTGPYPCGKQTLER
T4 sequence (P00750 36-562): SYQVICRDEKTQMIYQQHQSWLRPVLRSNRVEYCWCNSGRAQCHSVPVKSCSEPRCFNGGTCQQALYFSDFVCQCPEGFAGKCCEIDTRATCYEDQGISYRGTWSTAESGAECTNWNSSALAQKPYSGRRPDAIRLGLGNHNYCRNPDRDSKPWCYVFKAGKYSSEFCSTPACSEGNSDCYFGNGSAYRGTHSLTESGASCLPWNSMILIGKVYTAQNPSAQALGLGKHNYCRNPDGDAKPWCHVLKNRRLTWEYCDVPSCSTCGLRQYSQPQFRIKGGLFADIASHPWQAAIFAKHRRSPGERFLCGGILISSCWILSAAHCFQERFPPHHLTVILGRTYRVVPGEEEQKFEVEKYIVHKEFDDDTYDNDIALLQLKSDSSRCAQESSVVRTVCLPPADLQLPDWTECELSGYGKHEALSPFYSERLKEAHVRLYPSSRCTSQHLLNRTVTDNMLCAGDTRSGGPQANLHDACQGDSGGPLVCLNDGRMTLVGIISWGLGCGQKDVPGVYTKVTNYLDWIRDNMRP
T2 sequence (P00747 581-810 limits assumed): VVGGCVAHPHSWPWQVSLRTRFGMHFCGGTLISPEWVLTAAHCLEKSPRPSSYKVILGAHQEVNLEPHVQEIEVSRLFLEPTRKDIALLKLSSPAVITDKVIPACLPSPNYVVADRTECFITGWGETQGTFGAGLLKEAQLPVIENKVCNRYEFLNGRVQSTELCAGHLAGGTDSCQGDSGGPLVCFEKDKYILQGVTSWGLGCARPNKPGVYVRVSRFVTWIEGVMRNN
T2 sequence (P00747 97-580 partner limits assumed): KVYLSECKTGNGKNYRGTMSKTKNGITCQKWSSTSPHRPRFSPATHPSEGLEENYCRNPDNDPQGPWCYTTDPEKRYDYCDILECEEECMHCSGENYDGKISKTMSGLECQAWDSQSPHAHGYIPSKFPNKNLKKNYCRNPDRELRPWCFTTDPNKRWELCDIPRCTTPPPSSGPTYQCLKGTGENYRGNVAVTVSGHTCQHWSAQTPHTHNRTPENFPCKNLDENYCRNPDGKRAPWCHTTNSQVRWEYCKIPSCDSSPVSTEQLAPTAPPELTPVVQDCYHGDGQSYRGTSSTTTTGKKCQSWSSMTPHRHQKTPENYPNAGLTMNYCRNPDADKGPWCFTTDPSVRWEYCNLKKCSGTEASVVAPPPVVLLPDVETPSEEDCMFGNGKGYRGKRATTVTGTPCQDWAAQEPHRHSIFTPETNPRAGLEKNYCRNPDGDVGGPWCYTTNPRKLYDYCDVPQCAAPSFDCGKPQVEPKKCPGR

Compound | Enzyme Kass Trypsin (Bovine trypsin) [L/mol × 10^6] | Enzyme Kass Plasmin (Human plasmin) [L/mol × 10^6] | Enzyme Kass Human Thrombin (human thrombin) [L/mol × 10^6] | Human Plasma Anticoagulation 2 × Clotting time PT (human plasma [1]) | Enzyme Kass t-PA [2] [L/mol × 10^6] | Human Plasma Anticoagulation 2 × Clotting time TT (human plasma [3]) [ng/mL] | Human Plasma Anticoagulation 2 × Clotting time APTT (human plasma [4]) | Enzyme Kass Xa (factor Xa) [L/mol × 10^6]
Cl.Cl.N=C(N)NCCC[C@@H](C=O)NC(=O)CN(C(=O)[C@H]1CCCCN1)c1ccccc1 [Example 11, D--hPro--N(Ph)Gly--ArgH.2HCl] | 1.1 | 0.036 | 16 | 3,100 ng/mL | 0.0039 | 120 | 2,200 ng/mL | 0.21
Cc1ccccc1N(CC(=O)N[C@H](C=O)CCCN=C(N)N)C(=O)[C@H]1CCCCN1.Cl.Cl [Example 12, D--hPro--N(o--Me--Ph)Gly--ArgH.2HCl] | 0.55 | 0.060 | 3.3 | 8,200 ng/mL | 0.0064 | 370 | 4,900 ng/mL | 0.14
Cl.Cl.N=C(N)NCCC[C@@H](C=O)NC(=O)CN(CCC(=O)O)C(=O)[C@H]1CCCCN1 [Example 13, D--hPro--N(CH2 CH2 COOH)Gly--ArgH.2HCl] | 0.48 | 0.015 | 0.83 | 27,000 ng/mL | 0.001 | 800 | 21,000 ng/mL | 0.051
Cl.Cl.N=C(N)NCCC[C@@H](C=O)NC(=O)CN(CCCC(=O)O)C(=O)[C@H]1CCCCN1 [Example 14, D--hPro--N(CH2 CH2 CH2 COOH)Gly--ArgH.2HCl] | 0.60 | 0.016 | 1.2 | 30,000 ng/mL | 0.001 | 700 | 20,000 ng/mL | 0.062
Cl.Cl.N=C(N)NCCC[C@@H](C=O)NC(=O)CN(CCCCC(=O)O)C(=O)[C@H]1CCCCN1 [Example 15, D--hPro--N(CH2 CH2 CH2 CH2 COOH)Gly--ArgH.2HCl] | 0.99 | 0.020 | 1.8 | 21,000 ng/mL | 0.001 | 670 | 15,000 ng/mL | 0.078
CCS(=O)(=O)N[C@H](Cc1ccccc1)C(=O)N(C)CC(=O)N[C@H](C=O)CCCNC(=N)N.Cl.Cl [Example 16, N-(ethylsulfonyl)-D-phenylalanyl-N-methylglycyl-L-argininal dihydrochloride] | 22 | 1.5 | 37 | 1,600 ng/mL | 1.2 | 30 | 1,200 ng/mL | 3.3
CNCC(=O)N(CCc1ccccc1)CC(=O)N[C@H](C=O)CCCNC(=N)N.Cl.Cl [Example 17, Sar--N(CH2 CH2 Ph)Gly--ArgH.2HCl] | 0.38 | 0.20 | 2.9 | 2,700 ng/mL | 0.001 | 150 | 2,200 ng/mL | 2.2
